Data on 22 compounds can be found in patent US12599617B2, “Methods of treating head and neck cancers with hemp extract” (Ecofibre USA Inc., priority 2021, dated 2026).

In data set [1] the test system is patient derived organoids. Briefly: Response / % cell death of patient derived organoids. As to conditions: for % Cell Death: patient derived organoids treated with the drug. Type of data set: cell-based, human. The text has this:
A few of the above materials, as well as additional drugs were tried for response to patient derived organoids in Table 4, below, which details the % of cell death of the patient derived organoids, when treated with the relevant drug product.

Data set [2] concerns human head and neck cancer organoids. The data set is described as follows: Head and neck cancer organoid viability, cannabis extracts and paclitaxel alone or combined.
Data set [3] has as its system patient derived endometrial cancer cells. Briefly: Patient-derived xenograft (PDX) mouse tumor volume. As to conditions: paclitaxel only, 10 mg/kg, 21 days. Type of data set: in vivo, mice. From the text: All treatment group mice were kept alive for up to 10 weeks after drug injection or until the tumor volume grows bigger than 2500 mm^3.
The subject of data set [4] is grade 2 endometrial cancer organoids. Briefly: Grade 2 endometrial cancer organoid viability, carboplatin alone or with cannabis extract. As to conditions: carboplatin alone, 50 and 100 μm/mL. Type of data set: cell-based, human.
The conditions of data set [5]: cited from earlier work.
Another data set addresses CYP2C19 enzymes (Homo sapiens, UniProt P33261). To be noted: in vitro; cited from earlier work.
The next data set deals with P-glycoprotein (Homo sapiens, UniProt P08183). As to conditions: in vitro study; cited from earlier work.
P-glycoprotein, sequence (P08183 whole entry): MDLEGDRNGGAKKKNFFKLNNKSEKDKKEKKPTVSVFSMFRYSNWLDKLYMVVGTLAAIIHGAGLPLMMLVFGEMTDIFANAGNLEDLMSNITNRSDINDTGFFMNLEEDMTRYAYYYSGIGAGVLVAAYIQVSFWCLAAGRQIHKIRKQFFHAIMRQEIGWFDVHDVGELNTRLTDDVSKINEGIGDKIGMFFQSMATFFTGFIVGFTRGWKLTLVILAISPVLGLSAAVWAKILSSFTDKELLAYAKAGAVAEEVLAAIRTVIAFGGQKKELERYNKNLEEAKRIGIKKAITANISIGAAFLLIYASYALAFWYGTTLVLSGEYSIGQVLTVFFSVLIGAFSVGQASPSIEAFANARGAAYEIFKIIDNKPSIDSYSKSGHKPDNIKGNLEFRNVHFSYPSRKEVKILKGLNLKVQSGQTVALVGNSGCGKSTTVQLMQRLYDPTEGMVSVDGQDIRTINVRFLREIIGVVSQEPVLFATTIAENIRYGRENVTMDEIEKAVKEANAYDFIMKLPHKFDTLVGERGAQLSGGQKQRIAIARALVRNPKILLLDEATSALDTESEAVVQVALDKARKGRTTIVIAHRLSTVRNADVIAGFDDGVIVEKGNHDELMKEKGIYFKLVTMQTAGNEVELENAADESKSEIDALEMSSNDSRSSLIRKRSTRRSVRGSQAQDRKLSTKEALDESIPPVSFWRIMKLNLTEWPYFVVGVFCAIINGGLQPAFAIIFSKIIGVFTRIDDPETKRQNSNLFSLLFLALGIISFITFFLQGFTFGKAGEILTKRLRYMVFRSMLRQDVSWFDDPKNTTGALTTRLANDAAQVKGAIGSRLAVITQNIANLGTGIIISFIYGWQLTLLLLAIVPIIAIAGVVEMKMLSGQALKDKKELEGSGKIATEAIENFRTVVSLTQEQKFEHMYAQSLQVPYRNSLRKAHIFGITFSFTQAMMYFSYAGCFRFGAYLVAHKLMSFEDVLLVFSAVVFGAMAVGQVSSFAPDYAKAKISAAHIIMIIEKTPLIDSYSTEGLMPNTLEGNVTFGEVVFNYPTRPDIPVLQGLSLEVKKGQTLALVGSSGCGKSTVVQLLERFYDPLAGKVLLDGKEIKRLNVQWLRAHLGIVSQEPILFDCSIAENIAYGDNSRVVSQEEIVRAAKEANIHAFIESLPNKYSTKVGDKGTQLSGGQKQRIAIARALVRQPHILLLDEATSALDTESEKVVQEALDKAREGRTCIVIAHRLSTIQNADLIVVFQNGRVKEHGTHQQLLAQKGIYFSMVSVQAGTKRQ

CYP2C19 enzymes, sequence (P33261 whole entry): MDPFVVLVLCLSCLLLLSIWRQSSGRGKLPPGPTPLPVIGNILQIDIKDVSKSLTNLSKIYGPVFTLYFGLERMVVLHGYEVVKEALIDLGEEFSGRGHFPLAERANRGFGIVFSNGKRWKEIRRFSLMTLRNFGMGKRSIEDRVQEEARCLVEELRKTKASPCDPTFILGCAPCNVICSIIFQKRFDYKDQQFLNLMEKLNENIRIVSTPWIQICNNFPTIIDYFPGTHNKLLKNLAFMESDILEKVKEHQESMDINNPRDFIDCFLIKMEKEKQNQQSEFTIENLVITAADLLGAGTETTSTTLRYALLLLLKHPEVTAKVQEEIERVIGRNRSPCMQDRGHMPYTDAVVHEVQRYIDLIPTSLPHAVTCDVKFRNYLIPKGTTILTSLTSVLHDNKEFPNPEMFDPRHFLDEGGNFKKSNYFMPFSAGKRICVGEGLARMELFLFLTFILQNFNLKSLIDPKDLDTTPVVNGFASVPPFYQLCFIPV

On to `CCc1c2c(nc3ccc(OC(=O)N4CCC(N5CCCCC5)CC4)cc13)-c1cc3c(c(=O)n1C2)COC(=O)[C@]3(O)CC` [Irinotecan], for which, in data set [1], the “% Cell Death” value worked out at 51%.

As to `CO[C@H]1C(=O)[C@]2(C)[C@@H](OC)C[C@H]3OC[C@@]3(OC(C)=O)[C@H]2[C@H](OC(=O)c2ccccc2)[C@]2(O)C[C@H](OC(=O)[C@H](O)[C@@H](NC(=O)OC(C)(C)C)c3ccccc3)C(C)=C1C2(C)C` [Cabazitaxel], the “% Cell Death” value in data set [1] came out at 37%.

`C=C(C)[C@@H]1CCC(C)=C[C@H]1c1c(O)cc(CCCCC)c(C(=O)O)c1O` [CBDA, cannabidiolic acid]: the “percent viability of head and neck cancer organoids” value in data set [2] (at least 15 μg/mL CBDA) is “below 10%”.

For `CC[C@]1(O)C[C@@H]2CN(CCc3c([nH]c4ccccc34)[C@@](C(=O)OC)(c3cc4c(cc3OC)N(C)[C@H]3[C@@](O)(C(=O)OC)[C@H](OC(C)=O)[C@]5(CC)C=CCN6CC[C@]43[C@@H]65)C2)C1` [Vinblastine], the “% Cell Death” value in data set [1] is on record as 38%.

Regarding `CC(=O)O[C@H]1C(=O)[C@@]2(C)[C@H]([C@H](OC(=O)c3ccccc3)[C@]3(O)C[C@H](OC(=O)[C@H](O)[C@@H](NC(=O)c4ccccc4)c4ccccc4)C(C)=C1C3(C)C)[C@]1(OC(C)=O)CO[C@@H]1C[C@@H]2O` [Paclitaxel], the “% Cell Death” value in data set [1] was 39%. Besides, the organoid viability result in data set [2] (human, 14 days, 16 nm/mL) was “around 60%”; in data set [2] (paclitaxel alone, 4 nm/mL) it was “virtually no impact on the organoid viability”. In addition, in data set [3], the “effect on tumor volume” value was “in essence ineffective after an initial reduction at day 10”.

`O=C1c2c(O)ccc(O)c2C(=O)c2c(NCCNCCO)ccc(NCCNCCO)c21` [Mitoxantrone]: the “% Cell Death” value in data set [1] was 50%.

Turning to `COc1cccc2c1C(=O)c1c(O)c3c(c(O)c1C2=O)C[C@@](O)(C(=O)CO)C[C@@H]3O[C@H]1C[C@H](N)[C@H](O)[C@H](C)O1` [Doxorubicin], the “% Cell Death” value in data set [1] is recorded as 39%.

As for `COc1cc2c(cc1O)CCN[C@]21CS[C@@H]2c3c(OC(C)=O)c(C)c4c(c3[C@H](COC1=O)N1[C@@H]2[C@H]2c3c(cc(C)c(OC)c3O)C[C@@H]([C@@H]1O)N2C)OCO4` [Trabectedine], in data set [1], the “% Cell Death” value worked out at 32%.

As for `CN(C)/N=N/c1[nH]cnc1C(N)=O` [Dacarbazine], in data set [1], the “% Cell Death” value is 32%.

In the case of `CCC1=C[C@@H]2CN(C1)Cc1c([nH]c3ccccc13)[C@@](C(=O)OC)(c1cc3c(cc1OC)N(C)[C@H]1[C@@](O)(C(=O)OC)[C@H](OC(C)=O)[C@]4(CC)C=CCN5CC[C@]31[C@@H]54)C2` [Vinorelbine], in data set [1], the “% Cell Death” value was found to be 45%.

Take 5-Fluorouaracil/Capecitabine: in data set [1], the “% Cell Death” value amounted to 61%.

Regarding Bleomycin, the “% Cell Death” value in data set [1] came to 53%.

Regarding `N.N.[Cl][Pt][Cl]` [Cisplatin], the “% Cell Death” value in data set [1] is listed as 36%.

As to `N[C@@H](Cc1ccc(N(CCCl)CCCl)cc1)C(=O)O` [Melphalan], the “% Cell Death” value in data set [1] worked out at 40%.

For `COc1cc([C@@H]2c3cc4c(cc3[C@@H](O[C@@H]3O[C@@H]5CO[C@@H](C)O[C@H]5[C@H](O)[C@H]3O)[C@H]3COC(=O)[C@H]23)OCO4)cc(OC)c1O` [Etoposide], the “% Cell Death” value in data set [1] is reported as 33%.

For the compound `O=P1(N(CCCl)CCCl)NCCCO1` (stereo not drawn) [Cyclosphosphamide], the “% Cell Death” value in data set [1] is recorded as 32%.

Regarding `Nc1ccn([C@@H]2O[C@H](CO)[C@@H](O)C2(F)F)c(=O)n1` [Gemcitabine], the “% Cell Death” value in data set [1] is 56%.

Regarding `N.N.O=C([O-])C1(C(=O)[O-])CCC1.[Pt+2]` [Carboplatin], the “% Cell Death” value in data set [1] came to 30%. For the same compound, in data set [4], the viability entry was “about 50%”.

`Cn1nnc2c(C(N)=O)ncn2c1=O` [Temozolomide]: in data set [1], the “% Cell Death” value was determined as 40%.

As to `C=C(C)[C@@H]1CCC(C)=C[C@H]1c1c(O)cc(CCCCC)cc1O` [CBD, cannabidiol], the “effect on peak plasma concentrations of CBD” value in data set [5] (coadministration of rifampicin (a CYP3A4 inducer)) is given as “significantly reduced peak plasma concentrations”. The “effect on peak plasma drug concentrations” value in data set [5] (coadministration of the CYP3A4 inhibitor ketoconazole) is on record as “nearly doubled peak plasma drug concentrations”. Besides, the organoid response entry in data set [1] (organoid of the chemoresistant endometrial cancer patient) is recorded as “significant response”. The “inhibition of CYP2C19” value at CYP2C19 enzymes is on record as “potent inhibitor of CYP2C19 enzymes”. In addition, the “inhibition of P-glycoprotein-mediated drug transport” value on P-glycoprotein is on record as “significantly inhibits P-glycoprotein-mediated drug transport”.

Take `C=C(C)[C@@H]1CCC(C)=C[C@H]1c1c(O)cc(CCCCC)cc1O` [CBD isolate, cannabidiol]: the “percent viability of head and neck cancer organoids” value in data set [2] (10 μg/mL cannabis extract) was “effective in reducing the viability of the head and neck cancer organoids significantly”.

On to `CCCCCc1cc(O)c2c(c1)OC(C)(C)[C@@H]1CCC(C)=C[C@@H]21` [THC, Δ-9-tetrahydrocannabinol], for which the “onset to reach peak concentration” value in data set [5] (oral THC formulations) is given as roughly 120 min.
